Laboratory results from article PMC4919643, “Intestinally-targeted TGR5 agonists equipped with quaternary ammonium have an improved hypoglycemic effect and reduced gallbladder filling effect” (Scientific Reports, 2016).
≈ marks a conversion by molar mass, not a printed value.

Columns and labels:
ICR mice [1] = test: Oral glucose tolerance test (OGTT) in ICR mice; assay type: in vivo, mouse
Method: Blood glucose levels were measured berefore and after glucose loading. *p < 0.05, **p < 0.01 vs. control. Error bar indicateds SEM (standard error of the mean). […]
Oral glucose tolerance test (OGTT) and gallbladder filling assay in ICR mice. 100 […]
(§1) mice (n = 7-8) 90 min prior to the oral glucose load (4 g/kg). Blood glucose levels were measured via blood drops obtained by clipping the tail of the mice using an Accu-Chek Advantage II Glucose Monitor (Roche, Indianapolis, IN, USA) before compound dosing and 0, 15, 30, 60, and 120 min after the glucose load. The area under the concentration−time curve from 0 to 120 min (AUC0−120 min, Glu) of blood glucose after the glucose load was calculated by the trapezoidal rule. […]

Caco-2 cells = test: Caco-2 permeability determination; assay type: in vitro ADME
Method: (§2) Caco-2 permeability determination. Caco-2 permeability determination was carried out […]
(§3) Caco-2 cells were obtained from the ATCC (Cat#HTB-37) and maintained in Dulbecco’s modified Eagle’s Medium containing 10% fetal bovine serum, 1% glutamine, 1% nonessential amino acids, 100 μg/mL streptomycin, and 100 U/mL penicillin.
(§4) CO2 and 90% relative humidity environment. Caco-2 cells were passaged every 7 days at a ratio of 1:10. Cells were used between passages 30 and 40. After 21 days of culture, the integrity of the cell monolayer was verified by measuring the transepithelial electrical […]
(§5) Drug transport from the apical side to the basolateral side (A-B) and from the basolateral side to the apical side was measured simultaneously under the same condition.
(§6) Propranolol and atenolol were used as the […] control, respectively.
(§7) Digoxin was used as the positive control for Pgp-mediated drug efflux. In brief, the method was as follows. After washing the monolayer with HBSS three times, the compounds were diluted and added to the appropriate well (pH 6.8 for apical side and pH […]
(§8) 7.4 for basolateral side). […] Samples were […]
(§9) collected from the donor side at 5 and 95 min, and from the receiver side at 35 and 95 min post-incubation. The concentration of samples was measured by LC-MS/MS. The Papp was calculated from the following equation:
(§10) Papp = (VA/(SA×T))×([drug]acceptor/ [durg]initial donor )
(§11) Where VA is the volume of the acceptor well, SA is the surface area of the membrane, T is the total transport time, [drug]acceptor is the drug level at the acceptor side, and [drug]initial donor is the drug level at the donor side at T = 0. […]

[2] = Solubility in water determined by LC-MS/MS; assay type: physicochemical
ICR mice [3] = system: ICR mice; design: method as in PMID 25710631; details: normal mice (ICR mice); cited from earlier work
ob/ob mice = test: Hypoglycemic effect of 3 in diabetic model ob/ob mice; assay type: in vivo, mouse
mouse TGR5 = target: T1, mouse TGR5 (Mus musculus, UniProt Q80SS6); test: In vitro TGR5 reporter gene assay (mTGR5/CRE/HEK293)
T1 sequence (Q80SS6 1-329): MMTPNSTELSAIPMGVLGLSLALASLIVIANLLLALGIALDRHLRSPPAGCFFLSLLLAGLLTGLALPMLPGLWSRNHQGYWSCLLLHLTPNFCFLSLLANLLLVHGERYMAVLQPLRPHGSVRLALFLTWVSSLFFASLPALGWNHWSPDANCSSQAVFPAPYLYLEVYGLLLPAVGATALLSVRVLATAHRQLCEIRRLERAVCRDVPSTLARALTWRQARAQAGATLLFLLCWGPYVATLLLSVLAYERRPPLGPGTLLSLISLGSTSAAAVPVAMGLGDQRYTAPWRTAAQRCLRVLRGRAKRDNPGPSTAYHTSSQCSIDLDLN

[4] = In vitro microsomal stability assay (human); assay type: in vitro ADME; details: human liver microsomes
Method: (§12) Acetonitrile (containing 0.1% formic acid; C (MeOH with 1% TFA). Flow rate: 0.6 […]
(§13) Data system: Masslynx 4.1 (Waters).
(§14) In vitro microsomal stability assay. The test compound was dissolved in DMSO and diluted to the desired concentration with DMSO and 0.1% aqueous BSA. Liver microsomes were incubated in a 96-well plate containing 0.1 M Tris buffer (pH 7.4), 0.33 mg/mL microsomal protein, 0.1 mM test compound, 5.0 mM MgCl2, 0.005% BSA, and 1.0 mM NADPH. Incubations were conducted at 37 °C. An aliquot was removed at each time point and the enzymatic reaction was stopped by protein precipitation in MeOH. The loss of the test compound was determined by LC-MS/MS. The intrinsic clearance (CLint, mL/min/g) was calculated from the following equation: […]
(§15) Where k (min-1) is the slope of the line of the natural log of the percentage parent remaining versus the time of incubation; P is the microsomal protein concentration

human TGR5 = target: T2, human TGR5 (Homo sapiens, UniProt Q8TDU6); test: In vitro TGR5 reporter gene assay (hTGR5/CRE/HEK293)
T2 sequence (Q8TDU6 1-330): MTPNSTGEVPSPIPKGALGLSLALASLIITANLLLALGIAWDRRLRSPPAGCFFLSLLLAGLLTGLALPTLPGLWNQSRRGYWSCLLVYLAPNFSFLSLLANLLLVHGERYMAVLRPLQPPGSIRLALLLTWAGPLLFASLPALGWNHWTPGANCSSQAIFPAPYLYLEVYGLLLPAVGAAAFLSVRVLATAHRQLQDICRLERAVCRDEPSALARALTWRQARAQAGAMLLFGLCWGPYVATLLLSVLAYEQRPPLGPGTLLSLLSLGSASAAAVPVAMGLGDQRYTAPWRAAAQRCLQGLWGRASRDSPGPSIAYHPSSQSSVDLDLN

[5] = In vitro microsomal stability assay (mice); assay type: in vitro ADME; details: mice liver microsomes
Method: as §12, §13, §14, §15

[6] = Caco-2 permeability determination; assay type: in vitro ADME; details: human
Method: as §2, §3, §4, §5, §6, §7, §8, §9, §10, §11

ICR mice [7] = test: Gallbladder filling assay in ICR mice; assay type: in vivo, mouse; details: once a day oral dose 50 mg/kg
Method: Figure 4 (A) Relative gallbladder area and (B) relative bile weight after once a day oral dose. After the OGTT experiment, mice were refed for 3 h, the gallbladder was removed and the area measured using a vernier caliper. The relative gallbladder area was calculated from the length multiplied by the width of the gallbladder. Bile weight was measured using analytical balances. *p < 0.05; **p < 0.01; ***p < 0.001. Error bar indicates SEM.
Caco-2 permeability determination. Caco-2 permeability determination was carried out according to (Eur. J. Med. Chem. 2014, 82, 1-15). […]
Drug transport from the apical side to the basolateral side (A-B) and from the basolateral side to the apical side was measured simultaneously under the same condition. […]
Digoxin was used as the positive control for Pgp-mediated drug efflux. […] The concentration of samples was measured by LC-MS/MS. The Papp was calculated from the following equation: […]
as §1

[8] = Solubility as noted in the SAR discussion; assay type: physicochemical; details: compounds containing Br
[9] = Caco-2, apical to basolateral side
[10] = Caco-2, basolateral to apical side

With `O=C(c1cnccc1Oc1cc(Cl)ccc1Cl)N1CCN(C2CC2)c2ccccc21` [Compound 2, reference compound] the “AUC0–120 min of blood glucose, signed change vs control (OGTT, Fig. 3B)” value (ICR mice [1]; 50 mg/kg p.o.) was -16%, the “decrease of blood glucose AUC vs control (OGTT)” value (ICR mice [1]; 50 mg/kg p.o. 1.5 h before glucose 4 g/kg) was 16% and the “Papp A to B” value (Caco-2 cells; [9]) was 6.75 10^−6 cm/s. For the same molecule, the “Papp B to A” value (Caco-2 cells; [10]) was 5.58 10^−6 cm/s and the solubility [2] was 0.441 µg/mL (≈ 1 µM).

For `O=C(CCc1cc(Cl)c(Oc2ccncc2C(=O)N2CCN(C3CC3)c3ccccc32)cc1Cl)NCCOCCOCCOCCOCCOCCOCCOCCOCCNC(=O)CCc1cc(Cl)c(Oc2ccncc2C(=O)N2CCN(C3CC3)c3ccccc32)cc1Cl` [Compound 3], the hypoglycemic efficacy (ICR mice [3]) is listed as “moderate” and the hypoglycemic effect (ob/ob mice) is listed as “no significant effect”.

With `O=C(c1sccc1Oc1cc(Cl)ccc1Cl)N1CCN(C2CC2)c2ccccc21` [Compound 9a] the EC50 (mouse TGR5) was 2.8 nM, the “liver microsomal clearance (CLint)” value [4] was 1631 mL/min/g and the melting point was 120 °C. The EC50 (human TGR5) was 0.55 nM, the “liver microsomal clearance (CLint)” value [5] was 1390 mL/min/g and the efflux ratio at 95 min ([6]; Caco-2) was 0.8. The Papp A→B at 95 min [6, 9] was 0.55 ×10⁻⁶ cm/s, the Papp B→A at 95 min [6, 10] was 0.43 ×10⁻⁶ cm/s and the “increase of gallbladder area vs control” value (ICR mice [7]) was 210%.

For `O=C(c1sccc1Oc1cc(Cl)ccc1Br)N1CCN(C2CC2)c2ccccc21` [Compound 9c], the EC50 (mouse TGR5) was 3 ± 0.69 nM, the melting point was 107 °C and the EC50 (human TGR5) was 0.58 ± 0.11 nM. For the same molecule, the “solubility (in words)” value [8] was “poor solubility”.

Molecule `CN1CCN(C(=O)c2sccc2Oc2ccc(C(F)(F)F)cc2)c2ccccc21` [Compound 9h] has a melting point of 88 °C and an EC50 (human TGR5) of 76 ± 9.8 nM.
